According to patent publication US20230082430A1 (C4 Therapeutics, Inc., priority 2019, published 2023):

These molecules were tested on NCIH929.1 cells (assay: Cell viability assay for Table 2 (CellTiter-Glo 2.0, ATP quantification, 96 hr)). Details: 96 h, NCIH929.1 cell viability, 96 hr, top concentration 1 μM, 14 points half log titration; read-out: IC50.
Assay type: cell-based
Text: Cell Viability Assay for Table 2
CellTiter-Glo® 2.0 Assay was purchased from Promega (Madison, Wis., USA). NCIH929.1 cell line was purchased from ATCC (Manassas, Va., USA). Cell culture flasks and 384-well microplates were acquired from VWR (Radnor, Pa., USA).
Work on CC1(C(=O)N2CCC(c3ccc(Cc4ccc5c6c(cccc46)C(=O)N5C4CCC(=O)NC4=O)cc3)CC2)CCC1 (stereo not drawn) [Compound 169, 3-[6-[[4-[1-(1-methylcyclobutanecarbonyl)-4-piperidyl]phenyl]methyl]-2-oxo-benzo[cd]indol-1-yl]piperidine-2,6-dione] yielded an IC50 of under 1 nM. CC1(C(=O)N2CCC(n3cc(C4(c5ccc6c7c(cccc57)C(=O)N6C5CCC(=O)NC5=O)CC4)cn3)CC2)CCC1 (stereo not drawn) [Compound 163, 3-[6-[1-[1-[1-(1-methylcyclobutanecarbonyl)-4-piperidyl]pyrazol-4-yl]cyclopropyl]-2-oxo-benzo[cd]indol-1-yl]piperidine-2,6-dione] showed an IC50 of under 1 nM. O=C1CCC(N2C(=O)c3cccc4c(Cc5ccc(CN6CCCOCC6)cc5)ccc2c34)C(=O)N1 (stereo not drawn) [Compound 123, 3-(6-(4-((1,4-oxazepan-4-yl)methyl)benzyl)-2-oxobenzo[cd]indol-1(2H)-yl)piperidine-2,6-dione] gave an IC50 of under 1 nM. For O=C1CCC(N2C(=O)c3cccc4c(Cc5ccc(CN6C7CCC6COC7)cc5)ccc2c34)C(=O)N1 (stereo not drawn) [Compound 156, 3-[6-[[4-(3-oxa-8-azabicyclo[3.2.1]octan-8-ylmethyl)phenyl]methyl]-2-oxo-benzo[cd]indol-1-yl]piperidine-2,6-dione], the IC50 was under 1 nM. In the case of CC1(C(=O)N2CCC(n3cc(Cc4ccc5c6c(cccc46)C(=O)N5C4CCC(=O)NC4=O)cn3)CC2)CCOCC1 (stereo not drawn) [Compound 41, 3-(6-((1-(1-(4-methyltetrahydro-2H-pyran-4-carbonyl)piperidin-4-yl)-1H-pyrazol-4-yl)methyl)-2-oxobenzo[cd]indol-1(2H)-yl)piperidine-2,6-dione], the IC50 is reported as under 1 nM. CC1(n2cc(Cc3ccc4c5c(cccc35)C(=O)N4C3CCC(=O)NC3=O)cn2)CCN(C(=O)C23CCN(CC2)CC3)CC1 (stereo not drawn) [Compound 73, 3-(6-((l-(4-methyl-1-(quinuclidine-4-carbonyl)piperidin-4-yl)-1H-pyrazol-4-yl)methyl)-2-oxobenzo[cd]indol-1(2H)-yl)piperidine-2,6-dione] showed an IC50 of under 100 nM. Work on CC1(CN2CCC(n3cc(Cc4ccc5c6c(cccc46)C(=O)N5C4CCC(=O)NC4=O)cn3)CC23CC3)CCC1 (stereo not drawn) [Compound 275, 3-[6-[[1-[4-[(1-methylcyclobutyl)methyl]-4-azaspiro[2.5]octan-7-yl]pyrazol-4-yl]methyl]-2-oxo-benzo[cd]indol-1-yl]piperidine-2,6-dione] yielded an IC50 of under 1 nM. With O=C1CCC(N2C(=O)c3cccc4c(Cc5ccc(CN6CCOCC6=O)cc5)ccc2c34)C(=O)N1 (stereo not drawn) [Compound 197, 3-[2-oxo-6-[[4-[(3-oxomorpholin-4-yl)methyl]phenyl]methyl]benzo[cd]indol-1-yl]piperidine-2,6-dione] the IC50 was under 1 nM. For CC1(n2cc(Cc3ccc4c5c(cccc35)C(=O)N4C3CCC(=O)NC3=O)cn2)CCN(C(=O)C2CCN(c3ccccn3)CC2)CC1 (stereo not drawn) [Compound 272, 3-[6-[[1-[4-methyl-1-[1-(2-pyridyl)piperidine-4-carbonyl]-4-piperidyl]pyrazol-4-yl]methyl]-2-oxo-benzo[cd]indol-1-yl]piperidine-2,6-dione], the IC50 was under 1 nM. CC1(C(=O)N2CCC(Cc3ccc(Cc4ccc5c6c(cccc46)C(=O)N5C4CCC(=O)NC4=O)cc3)CC2)CCC1 (stereo not drawn) [Compound 150, 3-(6-(4-((1-(1-methylcyclobutane-1-carbonyl)piperidin-4-yl)methyl)benzyl)-2-oxobenzo[cd]indol-1(2H)-yl)piperidine-2,6-dione] showed an IC50 of under 1 nM. CN1CCN(Cc2ccc(Cc3ccc4c5c(cccc35)C(=O)N4C3CCC(=O)NC3=O)cc2)CC1=O (stereo not drawn) [Compound 116, 3-(6-(4-((4-mcthyl-3-oxopiperazin-1-yl)methyl)benzyl)-2-oxobenzo[cd]indol-1(2H)-yl)piperidme-2,6-dione] gave an IC50 of under 1 nM. With CC1(C(=O)N2CCC(c3cccc(Cc4ccc5c6c(cccc46)C(=O)N5C4CCC(=O)NC4=O)c3)CC2)CCC1 (stereo not drawn) [Compound 290, 3-[6-[[3-[1-(1-methylcyclobutanecarbonyl)-4-piperidyl]phenyl]methyl]-2-oxo-benzo[cd]indol-1-yl]piperidine-2,6-dione] the IC50 was under 1 nM. O=C1CCC(N2C(=O)c3cccc4c(Cc5cnn(C6CCN(C(=O)C7(C(F)(F)F)CCC7)CC6)c5)ccc2c34)C(=O)N1 (stereo not drawn) [Compound 51, 3-(2-oxo-6-((1-(1-(1-(trifluoromethyl)cyclobutane-1-carbonyl)piperidin-4-yl)-1H-pyrazol-4-yl)methyl)benzo[cd]indol-1(2H)-yl)piperidine-2,6-dione] showed an IC50 of under 1 nM. Molecule COC(c1cnn(C2CCN(C(=O)C3(C)CCC3)CC2)c1)c1ccc2c3c(cccc13)C(=O)N2C1CCC(=O)NC1=O (stereo not drawn) [Compound 247, 3-[6-[methoxy-[1-[1-(1-methylcyclobutanecarbonyl)-4-piperidyl]pyrazol-4-yl]methyl]-2-oxo-benzo[cd]indol-1-yl]piperidine-2,6-dione] has an IC50 of under 1 nM. In the case of CC1(n2cc(Cc3ccc4c5c(cccc35)C(=O)N4C3CCC(=O)NC3=O)cn2)CCN(C(=O)C2(C(F)(F)F)CC2)CC1 (stereo not drawn) [Compound 77, 3-(6-((1-(4-methyl-1-(1-(trifluoromethyl)cyclopropane-1-carbonyl)piperidin-4-yl)-1H-pyrazol-4-yl)methyl)-2-oxobenzo[cd]indol-1(2H)-yl)piperidine-2,6-dione], the IC50 is reported as under 1 nM. O=C1CCC(N2C(=O)c3cccc4c(Cc5ccc(CN6CC7(COC7)C6)cc5)ccc2c34)C(=O)N1 (stereo not drawn) [Compound 230, 3-(6-(4-((2-oxa-6-azaspiro[3.3)heptan-6-yl)methyl)benzyl)-2-oxobenzo[cd]indol-1(2H)-yl)piperidine-2,6-dione] was tested, and the IC50 was under 1 nM. Work on CC(C)(C)OC(=O)N1CCC(n2cc(Nc3ccc4c5c(cccc35)C(=O)N4C3CCC(=O)NC3=O)c(Cl)n2)CC1 (stereo not drawn) [Compound 250, tert-butyl 4-[3-chloro-4-[[1-(2,6-dioxo-3-piperidyl)-2-oxo-benzo[cd]indol-6-yl]amino]pyrazol-1-yl]piperidine-1-carboxylate] yielded an IC50 of under 100 nM. Work on O=C1CCC(N2C(=O)c3cccc4c(Cc5ccc(CN6C7COCC6C7)cc5)ccc2c34)C(=O)N1 (stereo not drawn) [Compound 146, 3-[6-[[4-(3-oxa-6-azabicyclo[3.1.1]heptan-6-ylmethyl)phenyl]methyl]-2-oxo-benzo[cd]indol-1-yl]piperidine-2,6-dione] yielded an IC50 of under 1 nM. CC(C)(C#N)C(=O)N1CCC(C)(n2cc(Cc3ccc4c5c(cccc35)C(=O)N4C3CCC(=O)NC3=O)cn2)CC1 (stereo not drawn) [Compound 80, 3-(4-(4-((1-(2,6-dioxopiperidin-3-yl)-2-oxo-1,2-dihydrobenzo[cd]indol-6-yl)methyl)-1H-pyrazol-1-yl)-4-methylpiperidin-1-yl)-2,2-dimethyl-3-oxopropanenitrile] showed an IC50 of under 1 nM. CC1(C(=O)N2CCC(n3cc(S(=O)(=O)c4ccc5c6c(cccc46)C(=O)N5C4CCC(=O)NC4=O)cn3)CC2)CCC1 (stereo not drawn) [Compound 175, 3-[6-[1-[1-(1-methylcyclobutanecarbonyl)-4-piperidyl]pyrazol-4-yl]sulfonyl-2-oxo-benzo[cd]indol-1-yl]piperidine-2,6-dione] showed an IC50 of under 100 nM.

Same assay, conditions: NCIH929.1 cell viability, 96 hr, top concentration 1 μM, 14 points half log titration; read-out: IC50
Molecule CC(c1cnn(C2CCN(C(=O)C3(C)CCC3)CC2)c1)c1ccc2c3c(cccc13)C(=O)N2C1CCC(=O)NC1=O (single isomer, unassigned) [Compound 149, 3-(6-(1-(1-(1-(1-methylcyclobutane-1-carbonyl)piperidin-4-yl)-1H-pyrazol-4-yl)ethyl)-2-oxobenzo[cd]indol-1(2H)-yl)piperidine-2,6-dione] has an IC50 of under 1 nM.
